Where two headings read alike, the source gives them in different places.
Assays:
[1] = PAMPA assay (BBB penetration); details: for BBB penetration estimation CNS (+/−): class from PAMPA Pe; for Pe ± SEM: PAMPA, PBS pH 7.4, n = 3
Source text: Furthermore, we experimentally determined the ability of 12 highlighted hBChE inhibitors to pass through the BBB using a parallel artificial membrane permeation assay (PAMPA) as described by Di et al.[65] […] The methodology was validated on a set of compounds (positive and negative controls) recognized for their activity in the CNS (Table 3).
In this study, it has been used as a non-cell-based in vitro assay carried out in a coated 96-well membrane filter. The filter membrane of the donor plate was coated with PBL (polar brain lipid, Avanti, USA) in dodecane (4 μl of 20 mg ml^−1 PBL in dodecane) and the acceptor well was filled with 300 μl of PBS (pH 7.4; VA). The tested compounds were dissolved first in DMSO and subsequently diluted with PBS (pH 7.4) to final concentrations of 50–100 μM in the donor wells. […] About 300 μL of the donor solution was added to the donor wells (VD) and the donor filter plate was carefully put on the acceptor plate so that the coated membrane was “in touch” with both the donor solution and acceptor buffer. In principle, the test compound diffused from the donor well through the lipid membrane (area = 0.28 cm^2) to the acceptor well. The concentration of the drug in both the donor and acceptor wells was assessed after 3, 4, 5, and 6 h of incubation in quadruplicate using the UV plate reader Spark (Tecan Group Ltd, Switzerland) at the maximum absorption wavelength of each compound. Besides that, a solution of theoretical compound concentration, simulating the equilibrium state established if the membrane were ideally permeable, was prepared and assessed as well. The concentration of the compounds in the donor and acceptor wells and equilibrium concentration were calculated from the standard curve and expressed as the permeability (Pe) according the equation: [drawing 10] where [drawing 11]

[2] = biological target: T1, recombinant BChE (hBChE, E.C. 3.1.1.8) (Homo sapiens, UniProt P06276); experiment: biochemical; assay type: biochemical; details: for IC50: mean ± SEM of three independent measurements, each in triplicate; for inhibition at 10 µM: read-out: % inhibition of hBChE ± SEM
T1 construct: purchased Sigma-Aldrich, Prague, Czech Republic
T1 sequence (P06276 29-602): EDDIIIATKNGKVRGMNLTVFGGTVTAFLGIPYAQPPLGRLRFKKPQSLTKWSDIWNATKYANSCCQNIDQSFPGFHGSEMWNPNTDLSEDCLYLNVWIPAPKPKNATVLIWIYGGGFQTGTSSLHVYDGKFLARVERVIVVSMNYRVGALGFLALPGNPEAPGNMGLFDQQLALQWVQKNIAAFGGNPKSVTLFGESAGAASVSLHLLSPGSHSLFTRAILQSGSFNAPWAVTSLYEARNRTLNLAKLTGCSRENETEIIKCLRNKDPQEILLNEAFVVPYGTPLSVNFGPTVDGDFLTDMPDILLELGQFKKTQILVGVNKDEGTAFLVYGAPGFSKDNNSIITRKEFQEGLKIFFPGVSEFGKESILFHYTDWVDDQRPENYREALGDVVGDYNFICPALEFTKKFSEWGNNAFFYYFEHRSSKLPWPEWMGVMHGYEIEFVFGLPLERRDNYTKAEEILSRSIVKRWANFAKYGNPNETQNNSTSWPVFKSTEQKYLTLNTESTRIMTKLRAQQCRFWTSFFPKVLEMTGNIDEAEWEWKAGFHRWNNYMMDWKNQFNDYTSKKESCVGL
Procedure: The activities of hAChE and hBChE were determined using a modified Ellman's method, as described in ref. [56] and [62] against recombinant AChE (hAChE, E.C. 3.1.1.7) and recombinant BChE (hBChE, E.C. 3.1.1.8), both of which were purchased from Sigma-Aldrich, Prague, Czech Republic. […] The other compounds used, including the phosphate buffer solution (PBS, pH = 7.4), 5,5′-dithio-bis(2-nitrobenzoic) acid (Ellman's reagent, DTNB), acetylthiocholine (ATChI), and butyrylthiocholine (BTChI), were commercially available and purchased from Sigma-Aldrich in Prague, Czech Republic. In brief, the corresponding enzyme (8.3 μL), 5 mM DTNB (283 μL), and the sample dilution in dimethyl sulfoxide (DMSO) at various concentrations (8.3 μL) were added to 96-well microplates (BRAND GMBH + CO KG, Wertheim, Germany) and pre-incubated for 5 minutes in the assay medium. The reaction was initiated by adding 10 mM substrate (ATChI or BTChI, 33.3 μL). […] Each measurement was repeated in triplicate. The percentage of inhibition was calculated using the following formula: [drawing 8] where ΔABl represents the increase in absorbance of the blank sample, and ΔASa represents the increase in absorbance of the measured sample. […] Microsoft Excel (Redmond, WA, USA) and GraphPad Prism version 7 for Windows (GraphPad Software, San Diego, CA, USA) were used for the statistical data evaluation.

[3] = tested at 10 μM compound concentration

NS(=O)(=O)c1cc2c(cc1Cl)N=CNS2(=O)=O [Chlorothiazide, reference compound]
BBB penetration estimation CNS (+/−) [1]: CNS − (CNS (−) (low BBB permeation predicted): Pe (×10^−6 cm s^−1) < 2.0)

COc1cccc(CCNCc2cccc(OCc3ccccc3)c2)c1 [Compound 6, {[3-(Benzyloxy)phenyl]methyl}[2-(3-methoxyphenyl)ethyl]amine]
IC50 [2]: 2700 ± 200 nM
inhibition at 10 µM [2, 3]: 78 ± 0.4%

COc1ccc(CCNCc2cccc(OCc3ccccc3)c2)cc1 [Compound 7, {[3-(Benzyloxy)phenyl]methyl}[2-(4-methoxyphenyl)ethyl]amine]
IC50 [2]: 4800 ± 200 nM
inhibition at 10 µM [2, 3]: 73 ± 0.6%

C=CCN(CCc1ccc(O)cc1)Cc1cccc(OCc2ccccc2)c1 [Compound 8, 4-[2-({[3-(Benzyloxy)phenyl]methyl}(prop-2-en-1-yl)amino)ethyl]phenol]
IC50 [2]: 600 ± 100 nM
inhibition at 10 µM [2, 3]: 92 ± 0.5%

C=CCOc1ccc(CCN(CC=C)Cc2cccc(OCc3ccccc3)c2)cc1 [Compound 9, {[3-(Benzyloxy)phenyl]methyl}(prop-2-en-1-yl){2-[4-(prop-2-en-1-yloxy)phenyl]ethyl}amine]
hBChE inhibitory activity (in words) [2]: complete loss of hBChE inhibitory activity
IC50 [2]: > 10000 nM
inhibition at 10 µM [2, 3]: 46 ± 1.7%

C=CCOc1ccc(CCNCc2cccc(OCc3ccccc3)c2)cc1 [Compound 12, {[3-(Benzyloxy)phenyl]methyl}({2-[4-(prop-2-en-1-yloxy)phenyl]ethyl})amine]
IC50 [2]: 4000 ± 1000 nM
inhibition at 10 µM [2, 3]: 75.5 ± 0.5%

Clc1cccc(NCc2cccc(OCc3ccccc3)c2)c1 [Compound 13, N-{[3-(Benzyloxy)phenyl]methyl}-3-chloroaniline]
hBChE inhibitory activity (in words) [2]: completely inactive
IC50 [2]: > 10000 nM
inhibition at 10 µM [2, 3]: 7.5 ± 0.4%

c1ccc(CNCc2cccc(OCc3ccccc3)c2)cc1 [Compound 14, Benzyl({[3-(benzyloxy)phenyl]methyl})amine]
IC50 [2]: 500 ± 100 nM
inhibition at 10 µM [2, 3]: 92 ± 0.3%
Pe ± SEM [1]: 9.8 ± 2.9 ×10^−6 cm s^−1
BBB penetration estimation CNS (+/−) [1]: CNS + (CNS (+) (high BBB permeation predicted): Pe (×10^−6 cm s^−1) > 4.0)

COc1ccc(CNCc2cccc(OCc3ccccc3)c2)cc1OC [Compound 15, {[3-(Benzyloxy)phenyl]methyl}[(3,4-dimethoxyphenyl)methyl]amine]
hBChE inhibitory activity (in words) [2]: completely inactive
IC50 [2]: > 10000 nM
inhibition at 10 µM [2, 3]: 49 ± 1.4%

c1ccc(CCNCc2cccc(OCc3ccccc3)c2)cc1 [Compound 16, {[3-(Benzyloxy)phenyl]methyl}(2-phenylethyl)amine]
IC50 [2]: 600 ± 100 nM
inhibition at 10 µM [2, 3]: 91 ± 0.9%

c1ccc(CCCNCc2cccc(OCc3ccccc3)c2)cc1 [Compound 17, {[3-(Benzyloxy)phenyl]methyl}(3-phenylpropyl)amine]
IC50 [2]: 600 ± 100 nM
inhibition at 10 µM [2, 3]: 89 ± 1.8%

CCN(Cc1ccccc1)Cc1cccc(OCc2ccccc2)c1 [Compound 19, Benzyl({[3-(benzyloxy)phenyl]methyl})ethylamine]
IC50 [2]: 500 ± 100 nM
inhibition at 10 µM [2, 3]: 88 ± 1.1%
Pe ± SEM [1]: 36 ± 14 ×10^−6 cm s^−1
BBB penetration estimation CNS (+/−) [1]: CNS + (CNS (+) (high BBB permeation predicted): Pe (×10^−6 cm s^−1) > 4.0)

C=CCN(Cc1ccccc1)Cc1cccc(OCc2ccccc2)c1 [Compound 20, Benzyl({[3-(benzyloxy)phenyl]methyl})(prop-2-en-1-yl)amine]
IC50 [2]: > 10000 nM
inhibition at 10 µM [2, 3]: 36 ± 0.8%

CCN(CCc1ccccc1)Cc1cccc(OCc2ccccc2)c1 [Compound 21, {[3-(Benzyloxy)phenyl]methyl}(ethyl)(2-phenylethyl)amine]
IC50 [2]: 400 ± 100 nM
inhibition at 10 µM [2, 3]: 91 ± 0.4%
Pe ± SEM [1]: 21.0 ± 0.6 ×10^−6 cm s^−1
BBB penetration estimation CNS (+/−) [1]: CNS + (CNS (+) (high BBB permeation predicted): Pe (×10^−6 cm s^−1) > 4.0)

CCCN(CCc1ccccc1)Cc1cccc(OCc2ccccc2)c1 [Compound 22, {[3-(Benzyloxy)phenyl]methyl}(2-phenylethyl)propylamine]
IC50 [2]: 700 ± 100 nM
inhibition at 10 µM [2, 3]: 81 ± 0.8%

C=CCN(CCc1ccccc1)Cc1cccc(OCc2ccccc2)c1 [Compound 23, {[3-(Benzyloxy)phenyl]methyl}(2-phenylethyl)(prop-2-en-1-yl)amine]
IC50 [2]: 7700 ± 1700 nM
inhibition at 10 µM [2, 3]: 60 ± 0.4%

CCN(CCCc1ccccc1)Cc1cccc(OCc2ccccc2)c1 [Compound 24, {[3-(Benzyloxy)phenyl]methyl}(ethyl)(3-phenylpropyl)amine]
IC50 [2]: 600 ± 100 nM
inhibition at 10 µM [2, 3]: 94 ± 0.6%

CCCN(CCCc1ccccc1)Cc1cccc(OCc2ccccc2)c1 [Compound 25, {[3-(Benzyloxy)phenyl]methyl}(3-phenylpropyl)propylamine]
IC50 [2]: 540 ± 30 nM
inhibition at 10 µM [2, 3]: 89 ± 0.8%
Pe ± SEM [1]: 33.0 ± 6.8 ×10^−6 cm s^−1
BBB penetration estimation CNS (+/−) [1]: CNS + (CNS (+) (high BBB permeation predicted): Pe (×10^−6 cm s^−1) > 4.0)

C=CCN(CCCc1ccccc1)Cc1cccc(OCc2ccccc2)c1 [Compound 26, {[3-(Benzyloxy)phenyl]methyl}(3-phenylpropyl)(prop-2-en-1-yl)amine]
IC50 [2]: 1200 ± 300 nM
inhibition at 10 µM [2, 3]: 76 ± 1.7%

COc1ccccc1CCNCc1ccc(OCc2ccccc2)cc1 [Compound 29, {[4-(Benzyloxy)phenyl]methyl}[2-(2-methoxyphenyl)ethyl]amine]
IC50 [2]: 800 ± 200 nM
inhibition at 10 µM [2, 3]: 89 ± 0.9%

COc1cccc(CCNCc2ccc(OCc3ccccc3)cc2)c1 [Compound 30, {[4-(Benzyloxy)phenyl]methyl}[2-(3-methoxyphenyl)ethyl]amine]
IC50 [2]: 4900 ± 1000 nM
inhibition at 10 µM [2, 3]: 66 ± 0.1%

COc1ccc(CCNCc2ccc(OCc3ccccc3)cc2)cc1 [Compound 31, {[4-(Benzyloxy)phenyl]methyl}[2-(4-methoxyphenyl)ethyl]amine]
IC50 [2]: 3000 ± 600 nM
inhibition at 10 µM [2, 3]: 93 ± 0.2%

Clc1ccc(CCNCc2ccc(OCc3ccccc3)cc2)cc1 [Compound 32, {[4-(Benzyloxy)phenyl]methyl}[2-(4-chlorophenyl)ethyl]amine]
IC50 [2]: 700 ± 200 nM
inhibition at 10 µM [2, 3]: 85 ± 1%

CCCOc1ccc(CCN(CCC)Cc2ccc(OCc3ccccc3)cc2)cc1 [Compound 34, {[4-(Benzyloxy)phenyl]methyl}[2-(4-propoxyphenyl)ethyl]propylamine]
hBChE inhibitory activity (in words) [2]: complete loss of hBChE inhibitory activity
IC50 [2]: > 10000 nM
inhibition at 10 µM [2, 3]: 30 ± 0.9%

c1ccc(CNCc2ccc(OCc3ccccc3)cc2)cc1 [Compound 35, Benzyl({[4-(benzyloxy)phenyl]methyl})amine]
IC50 [2]: 2800 ± 600 nM
inhibition at 10 µM [2, 3]: 60 ± 0.1%

c1ccc(COc2ccc(CNCc3ccccn3)cc2)cc1 [Compound 36, {[4-(Benzyloxy)phenyl]methyl}[(pyridin-2-yl)methyl]amine]
IC50 [2]: > 10000 nM
inhibition at 10 µM [2, 3]: 18 ± 0.5%

c1ccc(CCNCc2ccc(OCc3ccccc3)cc2)cc1 [Compound 37, {[4-(Benzyloxy)phenyl]methyl}(2-phenylethyl)amine]
IC50 [2]: 2000 ± 300 nM
inhibition at 10 µM [2, 3]: 81 ± 1.4%

c1ccc(COc2ccc(CNCCc3ccccn3)cc2)cc1 [Compound 38, {[4-(Benzyloxy)phenyl]methyl}[2-(pyridin-2-yl)ethyl]amine]
IC50 [2]: > 10000 nM
inhibition at 10 µM [2, 3]: 23 ± 1%

c1ccc(CCCNCc2ccc(OCc3ccccc3)cc2)cc1 [Compound 39, {[4-(Benzyloxy)phenyl]methyl}(3-phenylpropyl)amine]
IC50 [2]: 700 ± 100 nM
inhibition at 10 µM [2, 3]: 90 ± 0.3%

c1ccc(CCCCNCc2ccc(OCc3ccccc3)cc2)cc1 [Compound 40, {[4-(Benzyloxy)phenyl]methyl}(4-phenylbutyl)amine]
IC50 [2]: 800 ± 100 nM
inhibition at 10 µM [2, 3]: 85 ± 0.6%

CC(CNCc1ccc(OCc2ccccc2)cc1)c1ccccc1 (stereo not shown) [Compound 41, {[4-(Benzyloxy)phenyl]methyl}(2-phenylpropyl)amine]
IC50 [2]: 1600 ± 100 nM
inhibition at 10 µM [2, 3]: 88 ± 1%

CC(CCc1ccccc1)NCc1ccc(OCc2ccccc2)cc1 (stereo not shown) [Compound 42, {[4-(Benzyloxy)phenyl]methyl}(4-phenylbutan-2-yl)amine]
IC50 [2]: 500 ± 100 nM
inhibition at 10 µM [2, 3]: 92 ± 0.5%
Pe ± SEM [1]: 22.0 ± 4.2 ×10^−6 cm s^−1
BBB penetration estimation CNS (+/−) [1]: CNS + (CNS (+) (high BBB permeation predicted): Pe (×10^−6 cm s^−1) > 4.0)

CCN(Cc1ccccc1)Cc1ccc(OCc2ccccc2)cc1 [Compound 43, Benzyl({[4-(benzyloxy)phenyl]methyl})ethylamine]
IC50 [2]: > 10000 nM
inhibition at 10 µM [2, 3]: 50 ± 1.1%

CCCN(Cc1ccccc1)Cc1ccc(OCc2ccccc2)cc1 [Compound 44, Benzyl({[4-(benzyloxy)phenyl]methyl})propylamine]
IC50 [2]: > 10000 nM
inhibition at 10 µM [2, 3]: 18 ± 0.3%

CCCN(CCCc1ccccc1)Cc1ccc(OCc2ccccc2)cc1 [Compound 45, {[4-(Benzyloxy)phenyl]methyl}(3-phenylpropyl)propylamine]
IC50 [2]: 290 ± 40 nM
inhibition at 10 µM [2, 3]: 93 ± 0.8%
Pe ± SEM [1]: 25.0 ± 2.9 ×10^−6 cm s^−1
BBB penetration estimation CNS (+/−) [1]: CNS + (CNS (+) (high BBB permeation predicted): Pe (×10^−6 cm s^−1) > 4.0)

CCN(Cc1ccc(OCc2ccccc2)cc1)C(C)CCc1ccccc1 (stereo not shown) [Compound 46, {[4-(Benzyloxy)phenyl]methyl}(ethyl)(4-phenylbutan-2-yl)amine]
IC50 [2]: 500 ± 300 nM
inhibition at 10 µM [2, 3]: 87 ± 1.5%
Pe ± SEM [1]: 36.0 ± 2.0 ×10^−6 cm s^−1
BBB penetration estimation CNS (+/−) [1]: CNS + (CNS (+) (high BBB permeation predicted): Pe (×10^−6 cm s^−1) > 4.0)

CCCN(Cc1ccc(OCc2ccccc2)cc1)C(C)CCc1ccccc1 (stereo not shown) [Compound 47, {[4-(Benzyloxy)phenyl]methyl}(4-phenylbutan-2-yl)propylamine]
IC50 [2]: 1000 ± 300 nM
inhibition at 10 µM [2, 3]: 93 ± 0.2%

CNC(=O)Oc1ccc2c(c1)[C@]1(C)CCN(C)[C@@H]1N2C [Eserine, reference compound]
inhibition at 10 µM [2]: 96 ± 0.3%

COc1ccc2c3c1O[C@H]1C[C@@H](O)C=C[C@@]31CCN(C)C2 [Galantamine, reference compound]
inhibition at 10 µM [2]: 29 ± 3.5%

Nc1c2c(nc3ccccc13)CCCC2 [Tacrine, reference compound]
BBB penetration estimation CNS (+/−) [1]: CNS + (CNS (+) (high BBB permeation predicted): Pe (×10^−6 cm s^−1) > 4.0)

From PMC11110763, “Carltonine-derived compounds for targeted butyrylcholinesterase inhibition” (RSC Medicinal Chemistry, 2024)
